Like-named read-outs stand apart in the source and are kept apart here. Values belong to the compound of their own block, whether it stands above or below them.
Tests used:
CEM-T4 cells [1] = assay: Cytotoxicity determination (MTT test, 7 days); type: cell-based
Procedure: (§1) Cytotoxicity and anti-HIV activity of the compounds (XVIa-c) described above were examined in CEM-T4 cells according procedures described below.
(§2) Cytotoxicity determination—CC50 and CC90 parameters—For determination of compounds (XVIa-c) cytotoxicity CEM-T4 and CEM-A were cultured in standard conditions (37° C., 5% CO2) on 96 wells culture plates in media RPMI/FCS 10% (v/v). Experiments were carried out in media contained tested compounds in concentrations of appropriate range. Cultures in neat medium (RPMI, 10% FCS) were used as a control ones. Viability of cells were determined after 7 days using MTT test in which to each well of culture plate were added 10 μL of MTT solution (5 mg/mL) and cultures were incubated 3 hours in temperature 37° C. After centrifugation supernatant was removed and DMSO was added to lyse the cells and to dissolve crystals of farmazan. Measurement of colour intensity was done using a plate reader (λ560 nm).
(§3) Cytotoxicity calculation—reference absorbancy (K) was an average of measurements for five well of culture plate and accounts for 100% CEM-T4 or CEM-A cells viability. In each case absorbancy for cells cultured in media enriched with tested compounds was calculated as average of at least three measurements.
(§4) Cells viability (P) were calculated according to formula:
(§5) [formula] in which P—viability of cells, K—reference absorbancy, A—absorbancy for cells cultured in media enriched with tested compounds, T—absorbancy for neat medium (RPMI/10% FBS). On the basis of calculations graph showing dependence of viability and concentrations of tested compounds values of CC50 and CC90 were determined

HIV [2] = assay: Anti-HIV activity (inhibition of HIV replication, viral protein p24) in CEM-T4 cells; type: cell-based; conditions: for EC90: 90% inhibition of HIV replication; for SI50: selectivity index, CC50 vs EC50, CEM-T4 cells
Procedure: as §1
Anti HIV activity (EC50 and EC90)—parameter EC50 is defined as concentration of compounds in which replication of HIV is inhibited by 50% and parameter EC90 is defined as concentration of compounds in which replication of HIV is inhibited by 90%. To determine these parameters CEM-T4 cells were preincubated 24 hours in standard conditions (37° C., 5% CO2) in standard medium [RPMI, FCS 10% (v/v)] enriched with tested compounds in concentrations in range 0.001-20 μM. Incubations were performed with 96 flat bottom wells culture plates. In each well 20000 cells were suspended in solution of tested compound (200 μL). For each concentration four cultures were done. As a reference, media containing AZT in concentration 1.25 μM, 2.5 μM, 5.0 μM, 10.0 μM, 20 μM were used. As a positive control of maximal replication of HIV, culture in neat standard medium [RPMI/FCS 10% (v/v)] was used. After 24 hours of incubation in medium enriched with tested compound and AZT, cells were inoculated with known amount of HIV and cultivation was continued 8 days and after this the amount of viral protein p24 (marker of HIV replication) was measured. Inhibition of HIV replication is presented as percentage of p24 content in culture performed with media containing tested compound and assuming that amount of p24 measured in control correspond 100% of HIV replication. The examinations of each tested substance for each concentration were run in triplicate.

[3] = Cytotoxicity determination (MTT test, 7 days); type: cell-based; conditions: human, CEM-T4 cells
Procedure: as §1, §2, §3, §4, §5

HIV [4] = tested on: HIV; parameters: SI50: unit not given beside the values; conditions: *Estimated in cells CEM-T4; Baba M. et al. 1987; cited from earlier work
CEM-T4 cells [5] = conditions: cited from earlier work
HIV [6] = tested on: HIV; parameters: SI50: unit not given beside the values; conditions: **Imbach J-L. et al. 1994; cited from earlier work

EC90 (HIV [2]; CEM-T4 cells, p24 after 8 days): 6 nM
SMILES: Cc1cn([C@H]2C[C@H](N=[N+]=[N-])[C@@H](COP(=O)(O)Nc3ccncc3)O2)c(=O)[nH]c1=O [(XVITc)]
CC50 (CEM-T4 cells [1]): > 190 µM
CC90 (CEM-T4 cells [1]): > 190 µM
SI50 (HIV [2]): >>19000

EC50 (HIV [2]; Human immunodeficiency virus 1, 192 h, CEM-T4 cells, 50% inhibition of HIV replication, p24 after 8 days): 1.1 nM
EC90 (HIV [2]; Human immunodeficiency virus 1, 192 h, CEM-T4 cells, p24 after 8 days): 16 nM
SMILES: Cc1cn([C@H]2C[C@H](N=[N+]=[N-])[C@@H](CO)O2)c(=O)[nH]c1=O [AZT, 3′-azido-3′-deoxythymidine]
CC50 at 7 days [3]: 60 µM
SI50 (HIV [2]): 6000

SMILES: Nc1ncnc2c1ncn2[C@H]1CC[C@@H](CO)O1 [ddA, 2′,3′-dideoxyadenosine]
EC50 (HIV [4]): 2.5 µM
SI50 (HIV [4]): >>100*
CC50 (CEM-T4 cells [5]; *Estimated in cells CEM-T4, Baba M. et al. 1987): > 250 µM

SMILES: OC[C@@H]1CC[C@H](n2cnc3c(O)ncnc32)O1 [ddI, 2′,3′-dideoxyinosine]
EC50 (HIV [6]): 1100 nM
SI50 (HIV [6]): >>91**

SMILES: O=c1ccn([C@H]2CC[C@@H](CO)O2)c(=O)[nH]1 [ddU, 2′,3′-dideoxyuridine]
EC50 (HIV [4]): 48 µM
SI50 (HIV [4]): >5.2*
CC50 (CEM-T4 cells [5]): > 250 µM
